Measured values taken from patent US8614218B2, “Fused bicyclic pyrimidines” (Bayer Intellectual Property GmbH, priority 2007, dated 2013).

System: A549 cells
Experiment: Cellular proliferation/cytotoxicity assay (Alamar Blue), A549
Assay type: cell-based
Details: Homo sapiens, 72 h, Alamar Blue (Resazurin), read-out: Anti-proliterative/Cytotoxic activity (A549 cells)
Procedure: Cellular Proliferation/Cytotoxicity Assay:
The anti-proliferative activity of the compounds as described herein, is evaluated using the OvCAR3, HCT116 and A549 cell lines and the Alamar Blue (Resazurin) cell viability assay (O'Brien et al. Eur J Biochem 267, 5421-5426, 2000). Resazurin is reduced to the fluorescent resorufin by cellular dehydrogenase activity, correlating with viable, proliferating cells. Test compounds are dissolved as 10 mM solutions in DMSO and subsequently diluted. Cells like HCT116 or A549 cells were seeded into 96 well flat bottom plates at a density of 10000 cells/well (OvCAR3 cells), 1000 cells/well (HCT116 cells) or 2000 cells/well (A549 cells) in a volume of 200 μl/well. 24 hours after seeding, 1 μl each of the compound dilutions are added into each well of the 96 well plates. Each compound dilution is tested as at least as duplicates. Wells containing untreated control cells were filled with 200 μl DMEM (Dulbecco's Modified Eagle Medium) containing 0.5 vol % v:v DMSO. The cells are then incubated with the substances for 72 h at 37° C. in a humidified atmosphere containing 5 vol % CO2. To determine the viability of the cells, 20 μl of a Resazurin solution (90 mg/l) are added. After 4 h incubation at 37° C., the fluorescence is measured by extinction at λ=544 nm and an emission of λ=590 nm (Wallac Victor2; Perkin Elmer, USA). For the calculation of the cell viability, the emission value from untreated cells is set as 100% viability and the fluorescence intensity of treated cells are set in relation to the values of untreated cells. Viabilities are expressed as % values. The corresponding IC50 values of the compounds for cytotoxic activity are determined from the concentration-effect curves by means of non-linear regression. The analysis of the data is performed using a biostatistical program (GraphPad Prism, USA).
Representative IC50 values for anti-proliferative/cytotoxic potency determined in the aforementioned assay follow from the following table, in which the numbers of the compound correspond to the numbers of the examples.

Row | Structure (SMILES) | IC50
1 | Cc1nc2nc(-c3ccc(CN4CCC(c5nc(-c6ccco6)n[nH]5)CC4)cc3)c(-c3ccccc3)cn2n1 [Example 80, 5-[4-({4-[3-(2-furyl)-1H-1,2,4-triazol-5-yl]piperidin-1-yl}methyl)phenyl]-2-methyl-6-phenyl[1,2,4]triazolo[1,5-a]pyrimidine] | > 10 µM
2 | COc1ccnc(-c2nc(C3CCN(Cc4ccc(-c5nc6nccn6cc5-c5ccccc5)cc4)CC3)n[nH]2)c1 [Example 84, 7-[4-({4-[5-(4-methoxypyridin-2-yl)-1H-1,2,4-triazol-3-yl]piperidin-1-yl}methyl)phenyl]-6-phenylimidazo[1,2-a]pyrimidine] | < 10 µM
3 | c1ccc(-c2cn3nccc3nc2-c2ccc(CN3CCC(c4nc(-c5ccncc5)n[nH]4)CC3)cc2)cc1 [Example 71, 6-Phenyl-5-(4-{[4-(3-pyridin-4-yl-1H-1,2,4-triazol-5-yl)piperidin-1-yl]methyl}phenyl)pyrazolo[1,5-a]pyrimidine] | > 10 µM
4 | Cc1cc2nc(-c3ccc(CN4CCC(c5n[nH]c(-c6ccccn6)n5)CC4)cc3)c(-c3ccccc3)cn2n1 [Example 44, 2-Methyl-6-phenyl-5-(4-{[4-(5-pyridin-2-yl-1H-1,2,4-triazol-3-yl)piperidin-1-yl]methyl}phenyl)pyrazolo[1,5-a]pyrimidine] | > 10 µM
5 | Cc1nc2nc(-c3ccc(CN4CCC(c5n[nH]c(-c6ccncc6)n5)CC4)cc3)c(-c3ccccc3)cn2n1 [Example 47, 2-Methyl-6-phenyl-5-(4-{[4-(5-pyridin-4-yl-1H-1,2,4-triazol-3-yl)piperidin-1-yl]methyl}phenyl)[1,2,4]triazolo[1,5-a]pyrimidine] | < 10 µM
6 | O=C(O)c1cc2nc(-c3ccc(CN4CCC(c5n[nH]c(-c6ccccn6)n5)CC4)cc3)c(-c3ccccc3)cn2n1 [Example 79, 6-Phenyl-5-(4-{[4-(5-pyridin-2-yl-1H-1,2,4-triazol-3-yl)piperidin-1-yl]methyl}phenyl)pyrazolo[1,5-a]pyrimidine-2-carboxylic acid] | < 10 µM
7 | c1ccc(-c2nc(C3CCN(Cc4ccc(-c5nc6nccn6cc5-c5ccsc5)cc4)CC3)n[nH]2)nc1 [Example 51, 7-(4-{[4-(5-Pyridin-2-yl-1H-1,2,4-triazol-3-yl)piperidin-1-yl]methyl}phenyl)-6-(3-thienyl)imidazo[1,2-a]pyrimidine] | < 10 µM
8 | Cc1nc2nc(-c3ccc(CN4CCC(c5nc(-c6ccccc6)n[nH]5)CC4)cc3)c(-c3ccccc3)cn2n1 [Example 83, 2-methyl-6-phenyl-5-(4-{[4-(3-phenyl-1H-1,2,4-triazol-5-yl)piperidin-1-yl]methyl}phenyl)[1,2,4]triazolo[1,5-a]pyrimidine] | > 10 µM
9 | CN(C)c1nc2nc(-c3ccc(CN4CCC(c5n[nH]c(-c6ccccn6)n5)CC4)cc3)c(-c3ccccc3)cn2n1 [Example 62, N,N-Dimethyl-6-phenyl-5-(4-{[4-(5-pyridin-2-yl-1H-1,2,4-triazol-3-yl)piperidin-1-yl]methyl}phenyl)[1,2,4]triazolo[1,5-a]pyrimidin-2-amine] | < 10 µM
10 | c1ccc(-c2cn3ccnc3nc2-c2ccc(CN3CCC(c4nc(-c5ccco5)n[nH]4)CC3)cc2)cc1 [Example 82, 7-[4-({4-[3-(2-furyl)-1H-1,2,4-triazol-5-yl]piperidin-1-yl}methyl)phenyl]-6-phenylimidazo[1,2-a]pyrimidine] | > 10 µM
11 | COc1nc2nc(-c3ccc(CN4CCC(c5n[nH]c(-c6ccccn6)n5)CC4)cc3)c(-c3ccccc3)cn2n1 [Example 66, 2-Methoxy-6-phenyl-5-(4-{[4-(5-pyridin-2-yl-1H-1,2,4-triazol-3-yl)piperidin-1-yl]methyl}phenyl)[1,2,4]triazolo[1,5-a]pyrimidine] | < 10 µM
12 | COC(=O)c1cc2nc(-c3ccc(CN4CCC(c5n[nH]c(-c6ccccn6)n5)CC4)cc3)c(-c3ccccc3)cn2n1 [Example 77, Methyl 6-phenyl-5-(4-{[4-(5-pyridin-2-yl-1H-1,2,4-triazol-3-yl)piperidin-1-yl]methyl}phenyl)pyrazolo[1,5-a]pyrimidine-2-carboxylate] | < 10 µM
